Source: the supplement of paper PMC11061612

How the values were obtained:
[1] = system: NEC8 (Other Solid Carcinomas); assay: combination Emax (second highest fraction inhibited in the dose matrix, 72 h); higher = more inhibition; extreme values may be limits of the assay
How it was run: (§1)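 Bliss excess equals the observed combination effect minus the expected value EA + EB − EA·EB, where EA and EB are the effects of each agent alone. Combination Emax is the second-highest inhibition within the matrix. Inhibition was scaled from CellTiter-Glo 2.0 luminescence, with 0 set by vehicle wells and 1 by blank wells, after 72 hours of two-drug dosing of cells plated in 1536-well plates.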

[2] = system: NCI-H727 (Other Solid Carcinomas); assay: Bliss excess, mean over the matrix (fraction); higher = more synergy
How it was run: as §1

[3] = system: TGW (Neuroblastoma); assay: as above
How it was run: as §1

[4] = system: TE-1 (Esophageal Squamous Cell Carcinoma); assay: as above
How it was run: as §1

[5] = system: MLMA (Other Blood Carcinomas); assay: as above
How it was run: as §1

[6] = system: TK10 (Kidney Carcinoma); assay: as above
How it was run: as §1

[7] = system: EFM-19 (Breast Carcinoma); assay: as above
How it was run: as §1

[8] = system: EW-24 (Ewing's Sarcoma); assay: as above
How it was run: as §1

[9] = system: EoL-1-cell (Acute Myeloid Leukemia); assay: as above
How it was run: as §1

[10] = system: Ca9-22 (Head and Neck Carcinoma); assay: as above
How it was run: as §1

[11] = system: OSC-20 (Oral Cavity Carcinoma); assay: as above
How it was run: as §1

[12] = system: NB69 (Neuroblastoma); assay: as above
How it was run: as §1

[13] = system: HOP-62 (Lung Adenocarcinoma); assay: as above
How it was run: as §1

[14] = system: KYSE-450 (Esophageal Squamous Cell Carcinoma); assay: as above
How it was run: as §1

[15] = system: MIA-PaCa-2 (Pancreatic Carcinoma); assay: as above
How it was run: as §1

[16] = system: VA-ES-BJ (Other Solid Carcinomas); assay: as above
How it was run: as §1

[17] = system: D-263MG (Glioblastoma); assay: as above
How it was run: as §1

[18] = system: Caov-4 (Ovarian Carcinoma); assay: as above
How it was run: as §1

[19] = system: Hs-766T (Pancreatic Carcinoma); assay: as above
How it was run: as §1

[20] = system: NCI-H1915 (Non-Small Cell Lung Carcinoma); assay: as above
How it was run: as §1

In the case of `CS(=O)(=O)CCNCc1ccc(-c2ccc3ncnc(Nc4ccc(OCc5cccc(F)c5)c(Cl)c4)c3c2)o1` [Lapatinib] + C[C@@H](Oc1cc(-c2cnn(C3CCNCC3)c2)cnc1N)c1c(Cl)ccc(F)c1Cl [Crizotinib] (first compound max 10 µM, 7x7, partner max 10 µM), the “combination Emax” value [1] is reported as 0.862, the Bliss excess [2] is reported as -0.0097 and the Bliss excess [3] is reported as -0.0659. The Bliss excess [4] was 0.0266, the Bliss excess [5] was -0.0721 and the Bliss excess [6] was -0.0655. For the same compound, the Bliss excess [7] was -0.0109, the Bliss excess [8] was -0.0105 and the Bliss excess [9] was -0.0547. For the same compound, the Bliss excess [10] was -0.0383, the Bliss excess [11] was -0.0542 and the Bliss excess [12] was -0.0592. The Bliss excess [13] was -0.0466, the Bliss excess [14] was -0.0486 and the Bliss excess [15] was -0.0517. The Bliss excess [16] was 0.005, the Bliss excess [17] was -0.0621 and the Bliss excess [18] was -0.0451. It also gave a Bliss excess [19] of -0.0535 and a Bliss excess [20] of -0.0169.

With `CN(C)CCCOc1ccc(-c2ccc3ncc4c(c3c2)n(C2CCOCC2)c(=O)n4C)cn1` [AZD0156] + CCN(CCO)CCCOc1ccc2c(Nc3cc(CC(=O)Nc4cccc(F)c4)[nH]n3)ncnc2c1 [AZD2811] (first compound max 1 µM, 7x7, partner max 1 µM) the “combination Emax” value [1] was 0.146, the Bliss excess [2] was -0.0825 and the Bliss excess [3] was -0.0141. For the same compound, the Bliss excess [4] was -0.0016, the Bliss excess [5] was -0.0431 and the Bliss excess [6] was -0.0342. For the same compound, the Bliss excess [7] was -0.0331, the Bliss excess [8] was 0.0199 and the Bliss excess [9] was -0.0696. For the same compound, the Bliss excess [10] was -0.0056, the Bliss excess [11] was 0.0224 and the Bliss excess [12] was -0.0815. It also gave a Bliss excess [13] of -0.046, a Bliss excess [14] of -0.0353 and a Bliss excess [15] of 0.0369. It also gave a Bliss excess [16] of 0.0248, a Bliss excess [17] of -0.0339 and a Bliss excess [18] of 0.005. It also gave a Bliss excess [19] of -0.0411 and a Bliss excess [20] of 0.0174.

For `CC(=O)c1c(C)c2cnc(Nc3ccc(N4CCNCC4)cn3)nc2n(C2CCCC2)c1=O` [Palbociclib] + Cc1c2c(nn1C)CSCc1cc(n(C)n1)CSc1cc(c3ccccc3c1)OCCCc1c(C(=O)O)n(C)c3c-2c(Cl)ccc13 [AZD5991] (first compound max 10 µM, 7x7, partner max 1 µM), the “combination Emax” value [1] was 0.277, the Bliss excess [2] was 0.0353 and the Bliss excess [3] was -0.079. The Bliss excess [4] was -0.0182, the Bliss excess [5] was -0.0442 and the Bliss excess [6] was -0.0228. It also gave a Bliss excess [7] of -0.0005, a Bliss excess [8] of -0.0178 and a Bliss excess [9] of 0.0132. For the same compound, the Bliss excess [10] was -0.0032, the Bliss excess [11] was -0.0337 and the Bliss excess [12] was 0.0058. The Bliss excess [13] was -0.0573, the Bliss excess [14] was -0.0623 and the Bliss excess [15] was 0.0265. For the same compound, the Bliss excess [16] was -0.0101, the Bliss excess [17] was -0.0135 and the Bliss excess [18] was -0.0133. The Bliss excess [19] was -0.067 and the Bliss excess [20] was -0.0526.

For `CN(C)CCCOc1ccc(-c2ccc3ncc4c(c3c2)n(C2CCOCC2)c(=O)n4C)cn1` [AZD0156] + O=C(c1cc(Cc2n[nH]c(=O)c3ccccc23)ccc1F)N1CCN(C(=O)C2CC2)CC1 [Olaparib] (first compound max 3 µM, partner max 3 µM), the “combination Emax” value [1] was 0.277, the Bliss excess [2] was -0.0333 and the Bliss excess [3] was 0.106. It also gave a Bliss excess [4] of -0.0185, a Bliss excess [5] of 0.0255 and a Bliss excess [6] of -0.0279. The Bliss excess [7] was 0.0014, the Bliss excess [8] was -0.0624 and the Bliss excess [9] was 0.237. It also gave a Bliss excess [10] of 0.132, a Bliss excess [11] of 0.0433 and a Bliss excess [12] of 0.0875. For the same compound, the Bliss excess [13] was -0.0249, the Bliss excess [14] was -0.0054 and the Bliss excess [15] was -0.038. It also gave a Bliss excess [16] of -0.0267, a Bliss excess [17] of 0.0132 and a Bliss excess [18] of -0.0431. The Bliss excess [19] was -0.0741 and the Bliss excess [20] was 0.0032.

With `COc1cccc(OCCCN)c1-c1cc(Nc2cnc(C#N)cn2)n[nH]1` [Prexasertib] + Cc1cc2ncnn2cc1Nc1ncc2c(n1)n(C1CCOCC1)c(=O)n2C [AZD7648] (first compound max 1 µM, 7x7, partner max 10 µM) the “combination Emax” value [1] was 0.995, the Bliss excess [2] was -0.022 and the Bliss excess [3] was -0.0512. The Bliss excess [4] was -0.0266, the Bliss excess [5] was -0.0204 and the Bliss excess [6] was 0.0053. For the same compound, the Bliss excess [7] was -0.0676, the Bliss excess [8] was -0.0019 and the Bliss excess [9] was -0.0003. For the same compound, the Bliss excess [10] was -0.0231, the Bliss excess [11] was 0.0115 and the Bliss excess [12] was 0.0182. It also gave a Bliss excess [13] of -0.0063, a Bliss excess [14] of -0.0017 and a Bliss excess [15] of -0.0172. The Bliss excess [16] was 0.013, the Bliss excess [17] was -0.0394 and the Bliss excess [18] was -0.0361. It also gave a Bliss excess [19] of 0.0183 and a Bliss excess [20] of -0.008.

With `NC1(C(=O)N[C@@H](CCO)c2ccc(Cl)cc2)CCN(c2ncnc3[nH]ccc23)CC1` [Capivasertib] + CCN(CCO)CCCOc1ccc2c(Nc3cc(CC(=O)Nc4cccc(F)c4)[nH]n3)ncnc2c1 [AZD2811] (first compound max 10 µM, 7x7, partner max 1 µM) the “combination Emax” value [1] was 0.199, the Bliss excess [2] was -0.0058 and the Bliss excess [3] was -0.0911. It also gave a Bliss excess [4] of -0.0347, a Bliss excess [5] of -0.0388 and a Bliss excess [6] of -0.0434. It also gave a Bliss excess [7] of -0.0084, a Bliss excess [8] of -0.0029 and a Bliss excess [9] of -0.0177. It also gave a Bliss excess [10] of 0.0117, a Bliss excess [11] of 0.0045 and a Bliss excess [12] of -0.0339. It also gave a Bliss excess [13] of 0.0196, a Bliss excess [14] of 0.0066 and a Bliss excess [15] of 0.0031. The Bliss excess [16] was 0.0367, the Bliss excess [17] was 0.0163 and the Bliss excess [18] was 0.026. The Bliss excess [19] was -0.0559 and the Bliss excess [20] was -0.0294.

In the case of `NC1(C(=O)N[C@@H](CCO)c2ccc(Cl)cc2)CCN(c2ncnc3[nH]ccc23)CC1` [Capivasertib] + C[C@@H]1COCCN1C2=NC(=NC(=C2)C3(CC3)[S@](=N)(=O)C)C4=C5C=CNC5=NC=C4 [AZD6738] (first compound max 10 µM, 7x7, partner max 10 µM), the “combination Emax” value [1] is reported as 0.799, the Bliss excess [2] is reported as -0.0734 and the Bliss excess [3] is reported as -0.112. The Bliss excess [4] was -0.0831, the Bliss excess [5] was -0.0719 and the Bliss excess [6] was -0.0604. It also gave a Bliss excess [7] of -0.0072, a Bliss excess [8] of -0.0488 and a Bliss excess [9] of 0.0272. For the same compound, the Bliss excess [10] was -0.0386, the Bliss excess [11] was -0.0194 and the Bliss excess [12] was -0.0728. For the same compound, the Bliss excess [13] was -0.0695, the Bliss excess [14] was -0.0423 and the Bliss excess [15] was -0.04. The Bliss excess [16] was -0.0088, the Bliss excess [17] was -0.0685 and the Bliss excess [18] was -0.0249. The Bliss excess [19] was -0.02 and the Bliss excess [20] was -0.081.
